46 molecules from patent publication US20230348450A1, “CARBOXYLIC ACID-CONTAINING COMPOUNDS AS MODULATORS OF BIS-PHOSPHOGLYCERATE MUTASE FOR THE TREATMENT OF SICKLE CELL DISEASE” (Genzyme Corporation, priority 2020, published 2023) can be followed below.

The target of experiment [1] is human Bisphosphoglycerate mutase (hBPGM) (Homo sapiens (Human), UniProt P07738). In words: BPGM Phosphatase Assay. The format is biochemical. The settings on record: Table 6 additional results; read-out: huBPGM: phosphatase Enzyme EC50. The protocol:
Solutions of the test compounds were then added to the plate and the DMSO content was normalized across the plate. The plate was incubated at RT for 15 min. Next, the substrate 2,3-BPG (5 μL) was added to all the wells, and the plate was sealed and incubated for 24 hr at RT. After incubation, BIOMOL green dye (40 μL) was added to all the wells, the plate was shaken to mix, and the plate was incubated at RT for 20-30 min.

In the next experiment the target is hBPGM (Homo sapiens (Human), UniProt P07738). Put plainly: BPGM Synthase Assay. The format is biochemical. Conditions: Table 6 additional results; read-out: huBPGM: synthase Enzyme IC50. The protocol:
Example B1. BPGM Synthase Assay
The following materials were used in this assay: deionized water; Bisphosphoglycerate mutase (BPGM; Standard Buffer: 50 mM Tris, 0.01% Tween 20, pH 7.4); BPGM Reaction Buffer (50 mM Tris, 0.01% Tween 20, 3.23 mM KH2PO4, pH 7.4); dithiothreitol (DTT; Stock solution: 100 mM in Standard Buffer); 384-Well Black Assay Plate (Corning, P/N 3575); DMSO; BPGM Stock Solution (500 nM in BPGM Standard Buffer); Glyceraldehyde 3-phosphate dehydrogenase (GAPDH; Stock Solution: 40 U/mL in 20 mM Tris-HCL Buffer with 20% Glycerol, 1 mM EDTA, 1 mM DTT); Glyceraldehyde 3-phosphate (GAP; Stock Solution: 20 mM in BPGM Standard Buffer); 3-PG Stock Solution (500 μM in BPGM Standard Buffer); Nicotinamide adenine dinucleotide (NAD; Stock Solution: 50 mM in BPGM Standard Buffer); Koningic Acid (1 mM Stock in DMSO); Resazurin Stock Solution (10 mM in DMSO); Diaphorase Stock Solution (40 U/mL in BPGM Standard Buffer); DTT Reaction Buffer (1 mM DTT in BPGM Reaction Buffer); Enzyme Solution (5 nM BPGM, 0.4 U/mL GAPDH in DTT Reaction Buffer); GAPDH Solution (0.4 U/mL GAPDH in DTT Reaction Buffer); Substrate Solution (2 mM NAD, 20 μM 3PG, 800 μM GAP in DTT Reaction Buffer); and Resazurin Solution (5 U/mL Diaphorase, 500 μM Resazurin in BPGM Standard Buffer).
To the assay plate was added Enzyme Solution (20 uL) to columns 2-22 and 24 of the assay plate. To columns 1 and 23 was added GAPDH Solution (20 uL). A separate compound plate was prepared at the desired concentrations and all wells were normalized with 5% DMSO. The compound plate was incubated for 30 minutes at RT. Next, the substrate solution (20 μL) was dispensed to all reaction wells and the plate was incubated for 60 minutes at RT. Koningic acid (1 μL) was added and the plate was incubated for 10 minutes at RT. During this time period, the NADH fluorescence was read at ex: 360/em: 460. Next, Resazurin Solution (10 μL) was added to all reaction wells and the plate was incubated for 30 minutes at RT. The resorufin fluorescence was then read at ex:544/em:590.

Molecules are shown by their SMILES.

Sequence of human Bisphosphoglycerate mutase (hBPGM) (P07738 whole entry): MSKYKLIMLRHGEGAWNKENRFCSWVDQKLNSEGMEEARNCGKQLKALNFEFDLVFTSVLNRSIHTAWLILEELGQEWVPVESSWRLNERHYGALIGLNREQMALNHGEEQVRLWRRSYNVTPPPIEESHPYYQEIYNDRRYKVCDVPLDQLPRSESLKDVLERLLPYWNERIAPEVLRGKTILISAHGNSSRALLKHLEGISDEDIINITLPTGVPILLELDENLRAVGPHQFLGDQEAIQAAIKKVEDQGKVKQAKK
Sequence of hBPGM (P07738 whole entry, looked up): as the sequence (P07738 whole entry) above

For the molecule `CCOC(=O)NCc1nc(C)c(-c2csc(-c3cc(O)c(C(=O)O)cc3F)n2)s1` [Example 227], the EC50 in experiment [1] is 0.09 µM. The IC50 on hBPGM is 0.076 µM.
In the same order, the values of `COC(=O)NCc1nc(C)c(-c2cc(-c3cc(O)c(C(=O)O)cc3F)sn2)s1` [Example 168] are 0.53 µM and 0.37 µM.
As to `Cc1nc(CNC(=O)c2ccn(C)n2)sc1-c1csc(-c2cc(O)c(C(=O)O)cc2F)n1` [Example 173], in experiment [1], the EC50 came to 0.1 µM. Also, the IC50 on hBPGM stood at 0.049 µM.
On to `Cc1nc(COc2cccc(N)n2)sc1-c1csc(-c2cc(O)c(C(=O)O)cc2F)n1` [Example 204], for which, in experiment [1], the EC50 was 0.25 µM. Further, on hBPGM, the IC50 was determined as 0.27 µM.
In the same order, the values of `COC(=O)NCc1nc(C)c(-c2csc(-c3cc(O)c(C(=O)O)cc3C)n2)s1` [Example 130] are 0.04 µM and 0.07 µM.
Take `Cc1nc(C)c(-c2nsc(-c3ccc(C(=O)O)c(O)c3)n2)s1` [Example 283]: the EC50 in experiment [1] stood at 6.5 µM. In addition, the IC50 on hBPGM amounted to 1.3 µM.
With `Cc1nc(Cn2cccn2)sc1-c1csc(-c2cc(O)c(C(=O)O)cc2F)c1` [Example 229], in experiment [1], the EC50 was determined as 0.03 µM. Besides, at hBPGM, the IC50 stood at 0.19 µM.
`Cc1nc(C)c(-c2csc(-c3cc(O)c(C(=O)O)cn3)n2)s1` [Example 284]: in experiment [1], the concentration giving a half-maximal response (EC50) stood at 2.9 µM. Besides, the IC50 on hBPGM turned out to be 2.8 µM.
For the molecule `Cc1nc(C(C)NC(=O)C(C)(C)C)sc1-c1csc(-c2cc(O)c(C(=O)O)cc2F)n1` (centres unmarked) [Example 141], the EC50 in experiment [1] stood at 0.07 µM. Further, at hBPGM, the IC50 was 0.13 µM.
For `Cc1nc(Cc2cccnc2)sc1-c1cccc(-c2cc(O)c(C(=O)O)cc2F)c1` [Example 99], the EC50 in experiment [1] is 0.28 µM. Besides, at hBPGM, the half-maximal inhibitory concentration (IC50) came to 0.4 µM.
Regarding `Cc1nc(COc2ncccn2)sc1-c1cccc(-c2ccc(C(=O)O)c(F)c2)n1` [Example 96], in experiment [1], the EC50 turned out to be 0.01 µM. The IC50 at hBPGM came out at 1.3 µM.
Take `Cc1nc(CNC(=O)C2CCC2)sc1-c1csc(-c2cc(O)c(C(=O)O)cc2F)n1` [Example 220]: the EC50 in experiment [1] worked out at 0.063 µM. The IC50 at hBPGM came out at 0.052 µM.
In the case of `Cc1nc(Cc2ccccc2)sc1-c1cccc(-c2ccc(C(=O)O)c(O)c2)c1` [Example 289], the EC50 in experiment [1] turned out to be 0.13 µM. For the same molecule, the IC50 on hBPGM amounted to 1.2 µM.
With `Cc1nc(COC(N)=O)sc1-c1cccc(-c2ccc(C(=O)O)c(O)c2)c1` [Example 252], in experiment [1], the EC50 worked out at 1 µM. Further, the IC50 at hBPGM was 1 µM.
On to `Cc1nc(CNC(=O)OC(C)C)sc1-c1csc(-c2cc(O)c(C(=O)O)cc2F)n1` [Example 234], for which the EC50 in experiment [1] worked out at 0.08 µM. Also, the IC50 on hBPGM was determined as 0.084 µM.
For the molecule `Cc1nc(CN)sc1-c1csc(-c2cc(O)c(C(=O)O)cc2F)n1` [Example 243], the EC50 in experiment [1] is 0.99 µM. Besides, on hBPGM, the IC50 was 0.83 µM.
The matching figures for `Cc1nc(COC(=O)N(C)C)sc1-c1cccc(-c2ccc(C(=O)O)cc2)c1` [Example 67]: 0.55 µM and 0.87 µM.
With `Cc1nc(COc2ccc(Cl)cn2)sc1-c1cccc(-c2ccc(C(=O)O)c(O)c2)c1` [Example 74], the EC50 in experiment [1] came out at 1.1 µM. Besides, the IC50 at hBPGM is 1.8 µM.
As to `Cc1nc(Cc2cccnc2)sc1-c1csc(-c2cc(O)c(C(=O)O)cc2F)c1` [Example 143], in experiment [1], the EC50 came out at 0.08 µM. Moreover, on hBPGM, the IC50 is 0.2 µM.
Consider `Cc1nc(CNC(=O)C(C)C)sc1-c1csc(-c2cc(O)c(C(=O)O)cc2F)n1` [Example 231], for which the concentration giving a half-maximal response (EC50) in experiment [1] came out at 0.17 µM. Also, at hBPGM, the IC50 came out at 0.052 µM.
The matching figures for `COC(=O)NCc1nc(C)c(-c2csc(-c3ccc(C(=O)O)c(O)c3)c2)s1` [Example 166]: 0.07 µM and 0.25 µM.
The matching figures for `Cc1nc(CNC2CCOCC2)sc1-c1cccc(-c2ccc(C(=O)O)cc2)c1` [Example 51]: 4.3 µM and 21 µM.
Turning to `Cc1nc(CNC(=O)c2cccc(C#N)n2)sc1-c1csc(-c2cc(O)c(C(=O)O)cc2F)n1` [Example 180], the concentration giving a half-maximal response (EC50) in experiment [1] is 0.02 µM. The IC50 on hBPGM was found to be 0.028 µM.
For the molecule `Cc1nc(CNC(=O)C(C)(C)C)sc1-c1cccc(-c2ccc(C(=O)O)cc2)c1` [Example 73], the EC50 in experiment [1] was above 25 µM. Moreover, the IC50 on hBPGM came out at 2.2 µM.
As for `Cc1nc(CNC(=O)C2COC2)sc1-c1cccc(-c2ccc(C(=O)O)c(O)c2)c1` [Example 247], the EC50 in experiment [1] was 3.9 µM. For the same molecule, the IC50 on hBPGM was found to be 1 µM.
Take `COC(=O)NCc1nc(C)c(-c2csc(-c3cc(O)c(C(=O)O)cc3F)n2)s1` [Example 209]: the 50% effective concentration (EC50) in experiment [1] came to 0.47 µM. Besides, the IC50 on hBPGM was 0.25 µM.
On to `Cc1nc(Cc2cccnc2)sc1-c1cccc(-c2ccc(C(=O)O)cc2)c1` [Example 277], for which the EC50 in experiment [1] is 1.1 µM. The IC50 at hBPGM is 0.86 µM.
In the same order, the values of `Cc1nc(Cc2ccccc2)sc1-c1cccc(-c2cc(O)c(C(=O)O)cc2F)c1` [Example 105] are 0.29 µM and 1.6 µM.
For `Cc1nc(C)c(-c2nsc(-c3cc(O)c(C(=O)O)c(F)c3F)n2)s1` [Example 134], in experiment [1], the concentration for a half-maximal effect (EC50) was 0.34 µM. In addition, the IC50 on hBPGM worked out at 1 µM.
In the same order, the values of `CC(=O)NCc1nc(C)c(-c2cccc(-c3ccc(C(=O)O)c(O)c3)c2)s1` [Example 278] are 2.1 µM and 0.9 µM.
Turning to `COC(=O)NCc1nc(C)c(-c2csc(-c3cc(O)c(C(=O)NCC(=O)O)cc3F)n2)s1` [Example 191], in experiment [1], the EC50 is 0.57 µM. In addition, at hBPGM, the IC50 amounted to 0.78 µM.
In the same order, the values of `Cc1nc(Cc2cccnc2)sc1-c1cccc(-c2ccc(C(=O)O)c(O)c2)n1` [Example 237] are 0.17 µM and 0.14 µM.
Consider `Cc1nc(Cc2cccnc2)sc1-c1cccc(-c2ccc(C(=O)O)c(O)c2)c1` [Example 273], for which the concentration giving a half-maximal response (EC50) in experiment [1] came out at 0.17 µM. In addition, the IC50 on hBPGM came out at 0.39 µM.
Consider `Cc1nc(CN2CCOC2=O)sc1-c1cccc(-c2ccc(C(=O)O)c(O)c2)c1` [Example 263], for which the EC50 in experiment [1] worked out at 1.4 µM. In addition, at hBPGM, the IC50 was found to be 1.3 µM.
On to `Cc1nc(Cc2ccncc2)sc1-c1cccc(-c2ccc(C(=O)O)c(O)c2)c1` [Example 281], for which, in experiment [1], the EC50 came out at 0.12 µM. Also, on hBPGM, the IC50 worked out at 0.73 µM.
Regarding `Cc1ccc(Cc2nc(C)c(-c3cccc(-c4ccc(C(=O)O)c(O)c4)c3)s2)cn1` [Example 257], the EC50 in experiment [1] was found to be 0.16 µM. In addition, at hBPGM, the IC50 was determined as 0.36 µM.
In the same order, the values of `Cc1nc(CNC(=O)C2CC2)sc1-c1csc(-c2ccc(C(=O)O)c(O)c2)n1` [Example 249] are 0.21 µM and 0.18 µM.
The matching figures for `Cc1nc(COc2ncccn2)sc1-c1cccc(-c2csc(C(=O)O)n2)n1` [Example 87]: 8.7 µM and 3.4 µM.
On to `Cc1nc(Cn2cccn2)sc1-c1csc(-c2cc(O)c(C(=O)O)cc2F)n1` [Example 248], for which the EC50 in experiment [1] stood at 0.11 µM. In addition, the half-inhibitory concentration (IC50) at hBPGM was found to be 0.11 µM.
As to `COC(=O)NCc1nc(C)c(-c2csc(-c3cc(O)c(C(=O)O)cc3Cl)n2)s1` [Example 211], the EC50 in experiment [1] was found to be 0.19 µM. Besides, the IC50 on hBPGM was found to be 0.1 µM.
With `Cc1nc(Cc2ccn(C)n2)sc1-c1csc(-c2ccc(C(=O)O)c(O)c2)n1` [Example 189], the EC50 in experiment [1] turned out to be 0.33 µM. Besides, on hBPGM, the IC50 stood at 0.12 µM.
Consider `Cc1nc(CNC(=O)CCN(C)C)sc1-c1csc(-c2cc(O)c(C(=O)O)cc2F)n1` [Example 115], for which the EC50 in experiment [1] stood at 0.18 µM. In addition, on hBPGM, the IC50 stood at 0.67 µM.
Take `Cc1nc(CNC(=O)c2ccccn2)sc1-c1csc(-c2cc(O)c(C(=O)O)cc2F)n1` [Example 200]: the EC50 in experiment [1] turned out to be 0.27 µM. Also, on hBPGM, the IC50 came out at 0.073 µM.
In the same order, the values of `Cc1nc(COc2cccnc2)sc1-c1cccc(-c2ccc(C(=O)O)c(O)c2)c1` [Example 102] are 0.36 µM and 0.9 µM.
On to `COC(=O)NCc1nc(C)c(-c2csc(-c3cc(C)c(C(=O)O)c(O)c3)n2)s1` [Example 208], for which the EC50 in experiment [1] worked out at 0.42 µM. The IC50 on hBPGM was 0.36 µM.
For `Cc1nc(CNC(=O)N2CCCC2)sc1-c1csc(-c2cc(O)c(C(=O)O)cc2F)n1` [Example 198], in experiment [1], the EC50 was 0.19 µM. In addition, on hBPGM, the IC50 is 0.05 µM.

Usually EC50 stands for the concentration giving half of the maximal effect. One may read the IC50 as the point on the concentration scale where inhibition reaches its midpoint.
